Experimental data taken from ChEMBL document CHEMBL1681726, “Discovery of orally available tetrahydroquinoline-based glucocorticoid receptor agonists” (Bioorg Med Chem Lett, 2011).

What was measured:
[1] = AUC in Sprague-Dawley rat at 30 mg/kg, po; type: ADME, organism-based; design: dose 30 mg/kg, route oral; conditions: plasma
[2] = Selectivity ratio of Ki for GR to Ki for MR
[3] = Selectivity ratio of Ki for GR to Ki for AR
[4] = biological target: T1, Mineralocorticoid receptor (Homo sapiens, UniProt P08235); experiment: Binding affinity to MR
T1 sequence (P08235 whole entry): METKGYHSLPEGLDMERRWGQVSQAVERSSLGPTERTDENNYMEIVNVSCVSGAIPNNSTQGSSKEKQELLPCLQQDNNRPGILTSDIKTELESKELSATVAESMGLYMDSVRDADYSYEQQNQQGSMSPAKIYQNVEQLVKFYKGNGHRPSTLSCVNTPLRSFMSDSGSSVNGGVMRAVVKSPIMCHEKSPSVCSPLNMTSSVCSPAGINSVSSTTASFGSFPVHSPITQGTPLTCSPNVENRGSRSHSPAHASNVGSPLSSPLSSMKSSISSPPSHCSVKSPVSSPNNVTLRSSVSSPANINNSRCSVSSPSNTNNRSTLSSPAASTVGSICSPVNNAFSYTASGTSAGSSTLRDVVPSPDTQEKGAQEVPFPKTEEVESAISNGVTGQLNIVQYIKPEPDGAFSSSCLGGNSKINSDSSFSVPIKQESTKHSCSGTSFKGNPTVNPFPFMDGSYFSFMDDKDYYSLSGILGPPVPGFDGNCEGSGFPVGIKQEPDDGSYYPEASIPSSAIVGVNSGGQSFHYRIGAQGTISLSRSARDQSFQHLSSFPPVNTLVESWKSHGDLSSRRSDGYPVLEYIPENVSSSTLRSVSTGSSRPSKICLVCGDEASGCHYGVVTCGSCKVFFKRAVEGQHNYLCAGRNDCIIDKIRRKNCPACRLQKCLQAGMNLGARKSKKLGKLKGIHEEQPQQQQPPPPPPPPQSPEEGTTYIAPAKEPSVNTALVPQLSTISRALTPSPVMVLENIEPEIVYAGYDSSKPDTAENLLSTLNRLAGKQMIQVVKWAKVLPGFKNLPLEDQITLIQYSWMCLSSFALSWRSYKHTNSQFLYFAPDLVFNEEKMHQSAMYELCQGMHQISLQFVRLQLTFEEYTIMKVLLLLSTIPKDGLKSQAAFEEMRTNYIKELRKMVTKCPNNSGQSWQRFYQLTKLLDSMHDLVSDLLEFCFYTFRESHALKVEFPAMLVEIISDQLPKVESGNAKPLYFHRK

[5] = Apparent half life in Sprague-Dawley rat at 30 mg/kg, po; type: ADME, organism-based; design: dose 30 mg/kg, route oral; conditions: in vivo

- AUC [1]: 35000 ng·h/mL
- Ratio Ki [2]: > 500
- Ratio Ki [3]: > 500
- Ki [4]: 1520 nM
- half-life [5]: 3.2 h
SMILES: C[C@H]1c2c(cc(F)c(-c3cccc4cc[nH]c34)c2F)NC(C)(C)[C@@H]1O (racemic)
